Measurements reported in patent publication US11261232B2, “TNFRSF14 / HVEM proteins and methods of use thereof” (MEMORIAL SLOAN KETTERING CANCER CENTER, priority 2015, dated 2022).

Tested on: primary human FL B cells
Assay: BCR signaling (pSyk, pERK) in anti-IgG-stimulated primary FL B cells
Format: cell-based
Details: solHVEM 10 μg/ml
Procedure: FIG. 4A-E. HVEM blocks BCR signaling in a cell autonomous and BTLA dependent manner. FIG. 4A and FIG. 4B, Quantification of FACS analysis of phosphorylated BTK (pBTK) expression in BCL1 cells after stimulation with anti-IgM in the presence of solHVEM (10 μg/m1) or Ibrutinib (10 nM) without (FIG. 4A) or with (FIG. 4B) the knockdown of BTLA (shBTLA); FIG. 4C, FACS analysis of BTLA expression on purified primary human FL B cells distinguishes samples with high (BTLA^hi) and low (BTLAlo) surface BTLA expression); FIG. 4D, FACS analysis for the indicated signaling molecules in human primary FL B cells that were BTLA^hi or BTLAlo and stimulated with anti-human IgG (3 min; 10 μg/ml and H2O2 1 mM) in the presence or absence of the soluble HVEM ectodomain (solHVEM; 10 μg/ml) (right); FIG. 4E, Percentage of pSyk inhibition was calculated by comparing the ratio of MFI of pSyk+/−solHVEM and was correlated to BTLA ratio of MFI (r=0.697, p=0.03, Purified FL B cells, n=10, grade 1 and grade 2).
FIG. 11. Effect of HVEM on murine and human FL B cells. […]
Loss of HVEM and BTLA leads to BCR activation in murine lymphomas (FIGS. 2G and 3F). […] Briefly, the BCR signaling pathway in BCL1 mouse lymphoma cells was stimulated with IgM in the presence or absence of solHVEM (10 μg/ml) or the pharmacological BTK inhibitor ibrutinib (10 nM) and BTK phosphorylation was measured as an indicator of BCR pathway activation by flow cytometry. […] BTLA expression was analyzed across ten samples of purified human FL B cells by FACS, and the samples were divided into BTLA″ and BTLA^10 groups (FIG. 4C). […]
Purified IgGpos FL B cells were stimulated using FITC-conjugated goat anti-human IgG (Invitrogen, […]) in the presence of H2O2 (1 mM) with or without solHVEM (10 μg/mL). […] Phosphoprotein activation was quantified using Alexa 647-conjugated anti-pSyk (clone 17A/p-ZAP70), anti-pBLNK (clone j117-1278), or anti-pERK1/2 (clone 20A, BD Biosciences) and analyzed on B cells expressing clonal heavy and light chain gated using the anti-IgG FITC Ab and a PE-conjugated anti-kappa Ab (Southern Biotech).

solHVEM: Leu39-Val202 soluble HVEM ectodomain polypeptide of SEQ ID NO. 8
ERK inhibition in BTLAhi cells (BTLAhi primary FL B cells): inhibition | SYK inhibition in BTLAhi cells (BTLAhi primary FL B cells): inhibition | SYK and ERK inhibition in BTLAlo cells (BTLAlo primary FL B cells): little effect
